Experimental data as given in ChEMBL document CHEMBL1126692, “Structure-activity relationships for mitomycins. Application of the distance and charge analysis method” (J Med Chem, 1993).

Legend:
Mus musculus = organism: Mus musculus; test: Anti cancer activity was determined as effective dose; format: functional
[1] = Anti cancer activity was determined as lethal dose; format: organism-based; conditions: mouse, in vivo

Compound: COC1=C(C)C(=O)C2=C(C1=O)[C@@H](COC(N)=O)[C@@]1(OC)[C@H]3N[C@H]3CN21 [MITOMYCIN A]
- ED50 (Mus musculus): 1.1 mg/kg
- LD50 [1]: 2.1 mg/kg

Compound: C=C1C2=C(C(=O)C(C)=C(N)C2=O)N2C[C@H]3[C@H](N3C)[C@]12O (some centres not stated) [MITOMYCIN Z]
- ED50 (Mus musculus): 82 mg/kg
- LD50 [1]: 210 mg/kg

Compound: C=C1C2=C(C(=O)C(C)=C(N)C2=O)N2C[C@H]3[C@H](N3C)[C@]12OC (some centres not stated) [MITOMYCIN K]
- ED50 (Mus musculus): 100 mg/kg
- LD50 [1]: 130 mg/kg

Compound: C=C1C2=C(C(=O)C(C)=C(OC)C2=O)N2C[C@H]3[C@H](N3C)[C@]12O (some centres not stated) [MITOMYCIN H]
- ED50 (Mus musculus): 6.8 mg/kg
- LD50 [1]: 12 mg/kg

Compound: C=C1C2=C(C(=O)C(C)=C(OC)C2=O)N2C[C@@H]3N[C@@H]3[C@]12OC
- ED50 (Mus musculus): 7.5 mg/kg
- LD50 [1]: 13 mg/kg

Compound: C=C1C2=C(C(=O)C(C)=C(OC)C2=O)N2C[C@H]3[C@H](N3C)[C@]12OC (some centres not stated) [MITOMYCIN G]
- ED50 (Mus musculus): 35 mg/kg
- LD50 [1]: 22 mg/kg

Compound: C=C1C2=C(C(=O)C(C)=C(N)C2=O)N2C[C@@H]3N[C@@H]3[C@]12OC
- ED50 (Mus musculus): 18 mg/kg
- LD50 [1]: 75 mg/kg

Compound: CO[C@@]12[C@H](COC(N)=O)C3=C(C(=O)C(C)=C(N)C3=O)N1C[C@@H]1N[C@@H]12 [MITOMYCIN]
- ED50 (Mus musculus): 4.4 mg/kg

Compound: CO[C@@]12[C@H](COC(N)=O)C3=C(C(=O)C(C)=C(N)C3=O)N1C[C@H]1[C@@H]2N1C (some centres not stated) [PORFIROMYCIN]
- ED50 (Mus musculus): 22 mg/kg
- LD50 [1]: 57 mg/kg
